Key:
[1] = Stable polymorph form screen by slurry experiments; format: physicochemical; details: between 2° C. and 73° C.; conclusion from slurries
Procedure: Slurry experiments were conducted to identify the stable form at various conditions. In these experiments, saturated solutions in various solvents containing excess undissolved solids (starting with Form A+minor Form B) were stirred for extended durations. Slurries at room temperature (RT) and 2-8° C. were typically conducted for approximately 2 weeks, while slurries at 72-73° C. were stirred for a shorter duration (1 day) to minimize the potential for decomposition. […] The results are shown in the table 12 where the time and temperatures are approximate.

[2] = Form A and Form B interconversion (competitive) slurries; format: physicochemical
Procedure: Relative thermodynamic stabilities of anhydrous/non-solvated Forms A and B were studied at 2-8° C., room temperature (RT) and at 71-72° C. via interconversion (competitive) slurries. In these slurries, a given solvent system was pre-saturated with compound 092 (Form A+minor Form B) at the stated temperature, and a portion of the liquid phase was filtered into a mixture of solids containing relatively equal amounts of Form A and Form B. Interconversion slurries at 2-8° C. and RT were allowed to stir for 22 days, while slurries at 71-72° C. stirred for shorter duration (2-4 days). […] The results are reported in table 13 below where: liquid phase for each slurry was pre-saturated using as-received Form A+minor Form B; solvent ratios are v/v; water activity values were calculated using UNIFAC calculator at RT; and times and temperatures are approximate.

Row | Compound | Relative stability of polymorph forms [1] | Relative thermodynamic stability of polymorph forms ([2]; between 2° C. and 72° C., conclusion from competitive slurries) | Final form (XRPD Result) ([2]; competitive slurry in EtOH, 71-72° C., 2 d, relatively equal amounts of Form A and Form B) | Final form (XRPD Result) ([2]; competitive slurry in EtOH, RT, 22 d, relatively equal amounts of Form A and Form B) | Final form (XRPD Result) ([2]; competitive slurry in NMP/water 80:20 (aw 0.39), 2-8° C., 22 d, relatively equal amounts of Form A and Form B) | Final form (XRPD Result) ([2]; competitive slurry in NMP/water 80:20 (aw 0.39), 71-72° C., 2 d, analyzed damp) | Final form (XRPD Result) ([2]; competitive slurry in NMP/water 80:20 (aw 0.39), RT, 22 d, relatively equal amounts of Form A and Form B)
1 | CC1(NC(=O)c2cccc3nn(-c4cccnc4)cc23)CC1 [Form A, N-(1-methylcyclopropyl)-2-(3-pyridinyl)-2H-indazole 4-carboxamide] | more stable than Form B | thermodynamically stable form | – | – | – | – | –
2 | CC1(NC(=O)c2cccc3nn(-c4cccnc4)cc23)CC1 [Form A + Form B, N-(1-methylcyclopropyl)-2-(3-pyridinyl)-2H-indazole 4-carboxamide] | – | – | Form A | Form A | Form A | Form A | Form A
